Test results: patent US11976069B2, “Inhibitors of histone deacetylase useful for the treatment or prevention of HIV infection” (Merck Sharp & Dohme LLC, priority 2019, dated 2024)
Where two headings read alike, the source gives them in different places.

Key:
HDAC2 = biological target: T1, HDAC2 (Homo sapiens, UniProt Q92769); test: HDAC2 inhibition, modified Fluor-de-Lys assay; type: biochemical; conditions: 3 h pre-incubation, 40 μM substrate BML-KI104, read-out: HDAC-2 IC50
T1 construct: Full length human HDAC2-FLAG was expressed in baculovirus infected Sf9 cells; FLAG (C); host or cells: baculovirus infected Sf9 cells
Experimental: (§1) Human HDAC Enzyme Inhibitor FLUOR-DE-LYS Assay Materials
(§2) Recombinant human HDAC1, HDAC2, and HDAC3/SMRT heterodimer were prepared by Merck Research Laboratories. […] The eluted protein was then passed over an anti-HDAC1 immunoaffinity column to remove any complexes containing HDAC1. […]
(§3) The histone deacetylase activities of HDAC1, HDAC2, HDAC3, HDAC6, and HDAC8 were measured in modified Fluor-de-Lys assays in 384-well format. In this assay, HDAC enzymes are initially incubated with an ε-acetyl (or -trifluoroacetyl)-L-lysine-containing substrate with a C-terminal amide having aminomethylcoumarin as the amine component. HDACs cleave the ε-acetyl group, rendering the resulting product susceptible to AMC cleavage by trypsin. The released AMC is then detected by its fluorescence.
(§4) The HDAC 1, 2 assays employed buffer A, which contained 20 mM HEPES, pH 8.0, 1 mM MgCl2, 137 mM NaCl, 2.7 mM KCl, 0.05% BSA. The HDAC3/SMRT assay employed buffer B, consisting of 20 mM HEPES, pH 8.0, 1 mM MgCl2, 50 mM NaCl, 2.7 mM KCl, 0.05% BSA, 0.005% Tween 20, and 10 μM IP4. The HDAC6 assay employed buffer C, consisting of 20 mM HEPES, pH 8.0, 1 mM MgCl2, 137 mM NaCl, 2.7 mM KCl, 0.5 mM TCEP (Calbiochem) and 0.05% BSA. The HDAC8 assay employed buffer D, consisting of 20 mM HEPES, pH 8.0, 1 mM MgCl2, 100 mM NaCl, 20 mM KCl, 0.1% n-octyl-β-D-glucoside (Anatrace, Maumee, Ohio) and 0.05% BSA. All steps were performed at room temperature (23° C.). The assay was performed by pre-incubating serial dilutions of test compounds with the target HDAC prior to initiation with substrate. Each compound was titrated in a 10-point dose response, using a 1:3 fold dilution scheme, with 0.15 ul of solution added by ECHO555 to the plate, followed by the addition of 20 μl of the appropriate HDAC isoform diluted in appropriate assay buffer. […] Final conditions used for each assay were: 1. HDAC 1, 0.3 nM total enzyme, 20 μM substrate BML-KI104; 2. HDAC 2, 1.5 nM total enzyme, 40 μM substrate BML-KI104; 3. HDAC 3/SMRT, 0.3 nM total enzyme, 20 μM substrate BML-KI104; 4. HDAC 6, 1.3 nM total enzyme, 2.5 μM substrate BML-KI104; 5. HDAC 8, 1.3 nM total enzyme, 200 μM substrate BML-KI178; the final high dose of test compound was 30 μM. For potent compounds, 900 nM was used as the final high dose. The reactions were stopped and developed by addition of 30 ul of HDAC developer solution containing a saturating level of HDAC inhibitor as follows: 1.

HDAC3/SMRT heterodimer = biological target: T2, HDAC3/SMRT heterodimer (Homo sapiens, UniProt O15379); test: HDAC3/SMRT inhibition, modified Fluor-de-Lys assay; type: biochemical; conditions: 3 h pre-incubation, 0.3 nM enzyme, 20 μM substrate BML-KI104, read-out: HDAC-3 IC50
T2 construct: FLAG (C)
Experimental: as §1, §2, §3, §4

KARN cells (Jurkat 2C4) = test: KARN assay (luciferase induction); type: cell-based; conditions: Jurkat, ~20 hr, 100% induction = 2 μM SAHA
Experimental: KARN cells (Jurkat 2C4) were licensed from the laboratory of Dr. John Kam, Case Western Reserve University, School of Medicine. […] An atmosphere of 5% CO2 and 90% humidity was used for all culture work. Cells were split and reseeded into T175 flasks at a density of 0.2×10^6 cells/ml, in 40 ml of media, every 3-4 days.
Day 1: After the 3-4 day growth period, the cells were transferred from the T175 flask to a 50 ml conical tube and gently pelleted at 1000 rpm for 5 minutes. […] These flasks were returned to the incubator.
Day 2: Cell Preparation: The next day, the cells were transferred from each T175 flask to an individual 50 ml conical tube and gently pelleted at 1000 rpm for 5 minutes. The cells were gently resuspended in assay media (30 ml) and pelleted again. […] The cells were counted using the ViCell (Beckman Coulter, Brea, Calif.) and diluted as necessary. A Multidrop (Combi, Thermo Scientific, Waltham, Mass.) with a sterile head was used to seed the cells into the wells of a 384-well solid black plate with lid (Perkin Elmer, Waltham, Mass., catalog number 6007660) at 4000 cells/30 μl/well for the 5% NHS assay media and 6000 cells/30 μl/well for 0.1% NHS assay. The plates were covered and returned to the incubator prior to compound addition.
Compound Preparation: Solutions of control inhibitor suberoylanilide hydroxamic acid (SAHA; Sigma, catalog number SML0061) and test compounds in 100% DMSO were titrated into 384-well polypropylene plates (Labcyte, San Jose, Calif., catalog number P-05525) using a 20-point dose response and 2-fold dilutions. The reference compounds, DMSO and SAHA were then added to the compound plate. Using the Access system (Labcyte), 120 nl of these inhibitor and control solutions were added to the individual wells of the plates containing the cells, and the plates were then returned to the incubator for ˜20 hr (range from 18-24 hr). The final high concentration for SAHA and the test compounds in the assays was 40 μM. The final DMSO concentration in all wells was 0.4%. The minimal induction reference compound used was DMSO and the maximal induction reference compound used was SAHA (2 μM final concentration in the assay).
Day 3: The luciferase detection reagent was prepared by transferring the contents of one bottle of Steady-Glo buffer to one bottle of Steady-Glo substrate (Steady-Glo Luciferase Assay System, Promega, Madison, […]., catalog number E2520), followed by gently mixing until the substrate was thoroughly dissolved and the solution was equilibrated to room temperature. The cell culture assay plates were removed from the incubator and brought to room temperature (15 min). The Steady-Glo Reagent was added to the plates (30 μl/well), which were then covered with a black lid and incubated for 10 minutes at room temperature. The plates were then read for luminescence on an Envision (Perkin Elmer) using the ultrasensitive mode (US LUM), […] and 384-well aperture. Luminescence counts in the DMSO reference wells were considered as 0% induction, while those in the 2 μM SAHA reference wells were considered as 100% induction. Dose response curves were plotted as test compound concentration (X-axis) vs. percent activation (Y-axis) using a 4-parameter fit based on the Levenberg-Marquardt algorithm.

HDAC1 = biological target: T3, HDAC1 (Homo sapiens, UniProt Q13547); test: HDAC1 inhibition, modified Fluor-de-Lys assay; type: biochemical; conditions: 3 h pre-incubation, 0.3 nM enzyme, 20 μM substrate BML-KI104; read-out: HDAC-1 IC50
T3 construct: FLAG (C)
Experimental: as §1, §2, §3, §4

[1] = read-out: Karn EC50 with 0.1% NHS, 0.1% normal human serum
[2] = read-out: Karn EC50 with 5% NHS, 5% normal human serum

T3 sequence (Q13547 whole entry): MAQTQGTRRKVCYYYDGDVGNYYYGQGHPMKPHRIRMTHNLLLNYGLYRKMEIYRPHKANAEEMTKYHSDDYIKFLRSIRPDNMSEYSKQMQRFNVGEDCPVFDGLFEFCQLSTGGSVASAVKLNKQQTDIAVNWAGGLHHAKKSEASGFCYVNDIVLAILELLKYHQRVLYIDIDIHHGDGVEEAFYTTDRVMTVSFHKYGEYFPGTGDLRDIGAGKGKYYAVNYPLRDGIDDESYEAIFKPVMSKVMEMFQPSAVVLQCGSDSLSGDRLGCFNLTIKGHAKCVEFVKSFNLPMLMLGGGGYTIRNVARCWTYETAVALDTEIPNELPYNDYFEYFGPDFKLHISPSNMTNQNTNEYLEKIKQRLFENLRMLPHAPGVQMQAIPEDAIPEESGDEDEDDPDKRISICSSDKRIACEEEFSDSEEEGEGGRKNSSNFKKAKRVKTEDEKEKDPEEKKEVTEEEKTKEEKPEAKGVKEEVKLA
T1 sequence (Q92769 whole entry): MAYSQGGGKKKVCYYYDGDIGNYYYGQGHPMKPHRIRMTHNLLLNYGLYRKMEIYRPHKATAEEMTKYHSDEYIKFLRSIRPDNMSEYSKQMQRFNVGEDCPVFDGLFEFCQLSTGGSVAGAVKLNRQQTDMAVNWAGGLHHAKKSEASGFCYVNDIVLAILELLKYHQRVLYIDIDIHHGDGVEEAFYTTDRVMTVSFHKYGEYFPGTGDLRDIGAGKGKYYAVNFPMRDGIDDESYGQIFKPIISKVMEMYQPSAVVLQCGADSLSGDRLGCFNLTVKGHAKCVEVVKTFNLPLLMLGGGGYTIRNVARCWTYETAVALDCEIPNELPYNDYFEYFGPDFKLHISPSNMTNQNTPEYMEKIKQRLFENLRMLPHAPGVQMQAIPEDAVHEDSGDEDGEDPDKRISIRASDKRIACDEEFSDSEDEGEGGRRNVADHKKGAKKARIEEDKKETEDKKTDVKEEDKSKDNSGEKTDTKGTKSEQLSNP
T2 sequence (O15379 whole entry): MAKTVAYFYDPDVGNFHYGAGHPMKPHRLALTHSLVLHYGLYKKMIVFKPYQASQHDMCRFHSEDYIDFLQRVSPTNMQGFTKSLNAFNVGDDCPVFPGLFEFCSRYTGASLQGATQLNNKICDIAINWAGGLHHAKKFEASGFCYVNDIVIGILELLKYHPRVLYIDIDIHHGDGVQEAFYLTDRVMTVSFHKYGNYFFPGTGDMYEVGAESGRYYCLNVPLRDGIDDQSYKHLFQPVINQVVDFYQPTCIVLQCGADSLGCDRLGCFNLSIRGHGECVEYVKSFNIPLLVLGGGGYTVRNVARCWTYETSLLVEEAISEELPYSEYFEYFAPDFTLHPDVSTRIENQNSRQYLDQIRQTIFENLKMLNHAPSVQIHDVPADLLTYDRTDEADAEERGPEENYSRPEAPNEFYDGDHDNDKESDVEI
T2 sequence (Q9Y618 1-899 partner limits assumed): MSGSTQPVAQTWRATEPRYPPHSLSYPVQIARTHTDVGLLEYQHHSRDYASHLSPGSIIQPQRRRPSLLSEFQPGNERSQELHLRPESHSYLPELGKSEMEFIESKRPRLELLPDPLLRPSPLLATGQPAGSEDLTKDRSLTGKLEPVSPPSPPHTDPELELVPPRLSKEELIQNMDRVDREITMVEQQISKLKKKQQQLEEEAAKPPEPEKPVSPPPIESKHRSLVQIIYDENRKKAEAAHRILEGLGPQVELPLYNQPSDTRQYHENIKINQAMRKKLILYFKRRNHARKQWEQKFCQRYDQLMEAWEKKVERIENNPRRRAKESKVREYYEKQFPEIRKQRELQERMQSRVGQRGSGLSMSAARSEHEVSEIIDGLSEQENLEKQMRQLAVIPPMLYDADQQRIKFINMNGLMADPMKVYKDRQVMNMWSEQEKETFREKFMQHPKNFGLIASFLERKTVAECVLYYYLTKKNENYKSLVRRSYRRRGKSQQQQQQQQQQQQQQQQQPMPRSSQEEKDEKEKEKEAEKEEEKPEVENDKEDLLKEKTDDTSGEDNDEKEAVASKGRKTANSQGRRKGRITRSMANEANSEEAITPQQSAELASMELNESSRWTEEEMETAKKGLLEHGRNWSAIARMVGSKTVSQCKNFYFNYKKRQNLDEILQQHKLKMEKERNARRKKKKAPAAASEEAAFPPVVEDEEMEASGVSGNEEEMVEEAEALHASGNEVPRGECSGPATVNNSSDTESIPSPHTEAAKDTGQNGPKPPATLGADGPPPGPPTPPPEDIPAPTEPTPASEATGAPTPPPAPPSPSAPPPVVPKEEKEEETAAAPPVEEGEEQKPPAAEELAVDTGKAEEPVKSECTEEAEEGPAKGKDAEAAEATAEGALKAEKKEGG

CCC(=O)CCCCC[C@@H]1NC(=O)[C@H]2CC23CCN(CCCCCCCCn2ccc4cc(ccc4c2=O)-c2cnc1[nH]2)CC3 [Compound 1, (3S,6S)-6-(6-oxooctyl)-5,8,18,27,34-pentaazahexacyclo[25.2.2.1˜7,10˜.1˜11,15˜.1˜14,18˜.0˜1,3˜]tetratriaconta-7,9,11(33),12,14,16-hexaene-4,32-dione]
IC50 (HDAC2; […] enzyme): 0.43 nM | IC50 (HDAC3/SMRT heterodimer): 0.061 nM | EC50 (KARN cells (Jurkat 2C4); [1]): 14 nM | EC50 (KARN cells (Jurkat 2C4); [2]): 16 nM | IC50 (HDAC1): 0.2 nM

CCC(=O)CCCCC[C@@H]1NC(=O)[C@H]2CC23CCN(CCCCN2C4CCC2c2c(cccc24)-c2cnc1[nH]2)CC3 (stereo partly drawn) [Compound 2, (11S,4S)-4-(6-oxooctyl)-61,62,63,64-tetrahydro-51H-3-aza-6(5,9)-1,4-epiminonaphthalena-11(4,1)-piperidina-5(2,5)-imidazola-1(1,2)-cyclopropanaundecaphan-2-one]
IC50 (HDAC2; 1.5 nM enzyme): 176 nM | IC50 (HDAC3/SMRT heterodimer): 24 nM | EC50 (KARN cells (Jurkat 2C4); [1]): 6270 nM | EC50 (KARN cells (Jurkat 2C4); [2]): 9060 nM | IC50 (HDAC1): 45 nM

CCC(=O)CCCCC[C@@H]1NC(=O)[C@H]2CC23CCN(C/C=C/CN2C4CCC2c2cc(ccc24)-c2cnc1[nH]2)CC3 (stereo partly drawn) [Compound 3, (1^1S,4S,E)-4-(6-oxooctyl)-6^1,6^2,6^3,6^4-tetrahydro-5^1H-3-aza-6(6,9)-1,4-epiminonaphthalena-11(4,1)-piperidina-5(2,5)-imidazola-1(1,2)-cyclopropanaundecaphan-8-en-2-one]
IC50 (HDAC2; 1.5 nM enzyme): 7 nM | IC50 (HDAC3/SMRT heterodimer): 0.86 nM | EC50 (KARN cells (Jurkat 2C4); [1]): 73 nM | EC50 (KARN cells (Jurkat 2C4); [2]): 76 nM | IC50 (HDAC1): 2.7 nM

CCC(=O)CCCCC[C@@H]1NC(=O)[C@H]2CC23CCN(CCOCCn2ccc4cc(ccc4c2=O)-c2cnc1[nH]2)CC3 [Compound 4, (1^1S,4S)-4-(6-oxooctyl)-6^1,6^2-dihydro-5^1H-9-oxa-3-aza-6(6,2)-isoquinolina-12(4,1)-piperidina-5(2,5)-imidazola-1(1,2)-cyclopropanadodecaphane-6^1,2-dione]
IC50 (HDAC2; […] enzyme): 35 nM | IC50 (HDAC3/SMRT heterodimer): 7.1 nM | EC50 (KARN cells (Jurkat 2C4); [1]): > 40000 nM | EC50 (KARN cells (Jurkat 2C4); [2]): > 40000 nM | IC50 (HDAC1): 0.61 nM

CCC(=O)CCCCC[C@@H]1NC(=O)CN(C)CCCCOCCCCn2ccc3cc(ccc3c2=O)-c2cnc1[nH]2 [Compound 6, (3S)-7-methyl-3-(6-oxooctyl)-11,12-dihydro-21H-12-oxa-4,7-diaza-1(6,2)-isoquinolina-2(5,2)-imidazolacyclohexadecaphane-11,5-dione]
IC50 (HDAC2; […] enzyme): 595 nM | IC50 (HDAC3/SMRT heterodimer): 248 nM | EC50 (KARN cells (Jurkat 2C4); [1]): 2500 nM | EC50 (KARN cells (Jurkat 2C4); [2]): 3510 nM | IC50 (HDAC1): 28 nM

CCC(=O)CCCCC[C@@H]1NC(=O)[C@H]2CC23CCN(CCCCCOc2ccc4cc(ccc4n2)-c2cnc1o2)CC3 [Compound 9]
IC50 (HDAC2; […] enzyme): 335 nM | IC50 (HDAC3/SMRT heterodimer): 150 nM | EC50 (KARN cells (Jurkat 2C4); [1]): > 40000 nM | EC50 (KARN cells (Jurkat 2C4); [2]): > 40000 nM | IC50 (HDAC1): 24 nM

CCC(=O)CCCCC[C@@H]1NC(=O)[C@H]2CC23CCN(CCCCN2C4CCC2c2cc(ccc24)-c2cnc1[nH]2)CC3 (stereo partly drawn) [Compound 10, (3S,6S)-6-(6-oxooctyl)-5,8,20,25,31-pentaazaheptacyclo[23.2.2.1˜7,10˜.1˜11,15˜.0˜1,3˜.0˜14,19˜0.0˜16,20˜]hentriaconta-7,9,11(30),12,14-pentaen-4-one]
IC50 (HDAC2; 1.5 nM enzyme): 148 nM | IC50 (HDAC3/SMRT heterodimer): 49 nM | EC50 (KARN cells (Jurkat 2C4); [1]): 844 nM | EC50 (KARN cells (Jurkat 2C4); [2]): 867 nM | IC50 (HDAC1): 19 nM

CCC(=O)CCCCC[C@@H]1NC(=O)[C@H]2CC23CCN(CCCOCCn2ccc4cc(ccc4c2=O)-c2cnc1[nH]2)CC3 [Compound 11, (3S,6S)-6-(6-oxooctyl)-21-oxa-5,8,18,25,32-pentaazahexacyclo[23.2.2.1˜7,10˜0.1˜11,15˜0.1˜14,18˜0.0˜1,3˜] dotriaconta-7,9,11(31),12,14,16-hexaene-4,30-dione]
IC50 (HDAC2; […] enzyme): 22 nM | IC50 (HDAC3/SMRT heterodimer): 2.6 nM | EC50 (KARN cells (Jurkat 2C4); [1]): > 40000 nM | EC50 (KARN cells (Jurkat 2C4); [2]): > 40000 nM | IC50 (HDAC1): 0.11 nM

CCC(=O)CCCCC[C@H](NC(=O)[C@H]1CC12CCN(CC)CC2)c1[nH]c2nc1C(=O)NCCCCCc1cccc-2c1 [Compound 13, (S)-6-ethyl-N-((S)-7-oxo-1-((Z)-9-oxo-11H-8-aza-1(2,4)-imidazola-2(1,3)-benzenacyclononaphane-15-yl)nonyl)-6-azaspiro[2.5]octane-1-carboxamide]
IC50 (HDAC3/SMRT heterodimer): 103 nM | EC50 (KARN cells (Jurkat 2C4); [1]): > 40000 nM | EC50 (KARN cells (Jurkat 2C4); [2]): 12000 nM | IC50 (HDAC1): 109 nM
